We go through three substances from paper PMC4929710, “Specificity and mechanism of action of alpha-helical membrane-active peptides interacting with model and biological membranes by single-molecule force spectroscopy” (Scientific Reports, 2016).

Broadly, the IC50 is the point on the concentration scale where inhibition reaches its midpoint. Low values mean greater potency in that assay, high ones weaker potency in that assay.

One data set has as its system E. coli ATCC25922. Type of data set: cell-based. Conditions: ATCC25922, 24 h. As to the method:
(§1) Then, 10 μL of peptides was added. […] All assays were repeated in triplicate.

The subject of a further data set is P. aeruginosa ATCC27853. Type of data set: cell-based. Particulars: ATCC27853, 24 h. The procedure:
as §1

For the next data set, the system named is S. aureus ATCC25923. Type of data set: cell-based. Conditions: ATCC25923, 24 h. The procedure: as §1
The subject of the next data set is S. epidermidis ATCC12228. Type of data set: cell-based. Conditions: ATCC12228, 24 h. The procedure:
as §1

In data set [1] the test system is gram-negative bacteria (P. aeruginosa and E. coli). Type of data set: cell-based. As to the method:
as §1

Data set [2] relates to gram-positive bacteria (S. aureus and S. epidermidis). In kind it is cell-based. As to the method: as §1
The subject of another data set is A549 cells. Type of data set: cell-based, human. Conditions: 24 h. The procedure:
(§2) The MTT cell proliferation assay was used to investigate the anticancer activity and cytotoxicity of MAPs against cancer cell lines (HeLa, A549, SGC-7901, and B16) and normal cells (3T3-L1), respectively. Cells (5 × 10^3) were seeded in 96-well plates and incubated overnight. The peptide samples were then added to cells with final concentrations ranging from 1 μM to 125 μM. After 24 h, 20 μL of 5 mg/mL MTT solution in PBS was added to the cells and treated for 4 h at 37 °C. The formazan crystals were dissolved by 150 μL of dimethyl sulfoxide (DMSO). Finally, the absorbance was determined at 492 nm. The results were expressed as IC50, representing the concentration at which cell viability was reduced by 50%. All assays were repeated in triplicate.

A further data set deals with HeLa cells. In kind it is cell-based, human. Conditions: 24 h. As to the method: as §2
A further data set relates to SGC7901 cells. Type of data set: cell-based, human. Conditions: 24 h. As to the method:
as §2

The test system of another data set is 3T3-L1 cells. In kind it is cell-based, mouse. Particulars: 24 h. As to the method:
as §2

For a further data set, the system named is B16 cells. In kind it is cell-based, mouse. Particulars: 24 h. The procedure: as §2
Data set [3] can be described thus: RP-HPLC retention time (peptide hydrophobicity). Particulars: used as measure of peptide hydrophobicity. In kind it is physicochemical. As to the method: All peptides were synthesized by solid-phase peptide synthesis using Fmoc (9-fluorenyl-methoxycar-bonyl) chemistry and rink amide 4-methylbenzhydrylamine resin (MBHA resin; 0.8 mmol/g), as described previously. The crude peptides were purified on a LC-6A preparative reversed-phase high performance liquid chromatography (RP-HPLC, Shimadzu, Kyoto, Japan) using a Zorbax 300 SB-C8 column (250 × 9.4 mm inner diameter, […] particle size, 300 Å pore size), as described previously. The purity of the peptides was characterized by analytical RP-HPLC, mass spectrometry, and amino acid analysis.

Data set [4] in a line: Circular dichroism (CD) analysis. In kind it is physicochemical. Particulars: for α-Helix (%) 50% TFE / α-Helix (%) Benign: relative to molar ellipticity of A12L/A20L in 50% TFE; for [θ]222 Benign / [θ]222 50% TFE: CD, 25 °C; for [θ]222 Benign: benign buffer pH 7.0, 100 mM KCl, 50 mM KH2PO4/K2HPO4; for [θ]222 50% TFE: benign buffer:TFE 1:1 vol/vol; for α-Helix (%) Benign: benign buffer. As to the method:
The secondary structures of the peptides were determined using a Jasco J-810 CD spectrometer (Jasco, Easton, MD) at 25 °C [12]. The benign buffer (pH 7.0, 100 mM KCl, 50 mM KH2PO4/K2HPO4) was used to simulate the hydrophilic environment and 50% 2,2,2-trifluoroethanol (TFE) (benign buffer: TFE = 1: 1, vol/vol) was used to simulate the hydrophobic environment. The mean residue molar ellipticities at 222 nm, [θ]222 (degree·cm^2·dmol^−1), were used to calculate the relative helical contents of MAPs[24].
CD spectroscopy illustrated the secondary structure of peptide analogs under benign environment and 50% TFE to mimic the hydrophobic conditions of cell membranes. CD results are shown in Supplementary Table S2 and Fig. S1. […] The helical content (%) of peptides in two groups relative to the molar ellipticity value of the peptide A12L/A20L in 50% TFE. In addition, except the peptide of V13E, the relative helicity of the peptides are in the same order of V13L>V13A>V13S>V13K and A12L/A20L>A20L>L6A>L6A/L17A in the benign and hydrophobic environments and also in the same order with the peptide hydrophobicity.

Another data set concerns PC/Chol (8:1 w/w) LUVs. In words: Tryptophan fluorescence with LUVs. In kind it is binding. Particulars: PC/Chol (8:1 w/w) LUVs versus HEPES buffer, 25 °C. From the text: (§3) In order to investigate the interaction between peptides and difference types of cell membranes, three different LUVs were used to mimic a prokaryotic cell membrane (PC/PG), a normal eukaryotic cell membrane (PC/Chol), and a cancer cell membrane (PC/SM/PE/PS/Chol). Tryptophan residue in the peptide sequence was used as a fluorescent probe to examine the interaction of peptides with model membranes. […] For example, in the PC/PG (7:3 w/w) anionic prokaryotic mimicking model membrane, peptides V13L and A12L/A20L had the strongest hydrophobicity with blue shift values of approximately 37 nm and 38 nm, respectively. Conversely, peptide V13E with a negative charge of glutamic acid residue, and peptide L6A/L17A with the lowest hydrophobicity had blue shift values of approximately 18 nm and 17 nm, respectively. […] In addition, within PC/SM/PE/PS/Chol (4.35:4.35:1:0.3:1 w/w) as a cancer-mimicking model membrane, the same results could be obtained in that peptide hydrophobicity correlates with anticancer activity and the blue shift values of peptides.
(§4) In accordance with previously described methods, LUVs were prepared with PC/PG (7:3 w/w), PC/Chol (8:1 w/w), and PC/SM/PE/PS/Chol (4.35:4.35:1:0.3:1 w/w) to mimic prokaryotic cell, […], membranes, respectively. Lipids using the freeze-thaw method as described previously, followed by extrusion through […] double-stacked nuclepore filters using an Mini-Extruder (Avanti Polar Lipids, Inc.)[11][27].
(§5) Three kinds of LUVs were prepared and cultured in HEPES buffer (pH 7.4, 10 mM HEPES, 150 mM NaCl) and the molar concentration was adjusted to 100 μM. A total of 14 μL of 100 μM MAPs was mixed with 686 μL of 100 μM liposomes at 25 °C for 10 min. A Shimadzu RF-5301PC, (excitation wavelength of […], emission wavelength of 300–450 nm) was used to measure the tryptophan fluorescence. Potassium iodide (KI) as a quencher was added to the previous reaction system for a final concentration of 0.02–0.08 M, respectively. The experimental data were plotted according to the Stern–Volmer equation F0/F = 1 + Ksv[Q], where F0 and F are the fluorescence intensity in the absence or presence of a quencher at concentration [Q], respectively, and Ksv is the Stern–Volmer quenching constant.

Another data set concerns PC/PG (7:3 w/w) LUVs. In words: Tryptophan fluorescence with LUVs. Particulars: PC/PG (7:3 w/w) LUVs versus HEPES buffer, 25 °C. In kind it is binding.
Source text: as §3, §4, §5

Data set [5] deals with PC/SM/PE/PS/Chol (4.35:4.35:1:0.3:1 w/w) LUVs. Kind of data set: Tryptophan fluorescence with LUVs. Conditions: PC/SM/PE/PS/Chol (4.35:4.35:1:0.3:1 w/w) LUVs versus HEPES buffer, 25 °C. Type of data set: binding.
Source text: as §3, §4, §5

Turning to “Ac-KWKSFLKTFKSAAKTVLHTALKAISS-NH2 [Peptide V13A]”, the “G− MIC E. coli ATCC25922” value in the data set with E. coli ATCC25922 was found to be 4 µM. Also, the “G− MIC P. aeruginosa ATCC27853” value with P. aeruginosa ATCC27853 worked out at 8 µM. The “G+ MIC S. aureus ATCC25923” value in the data set with S. aureus ATCC25923 was found to be 8 µM. Moreover, the “G+ MIC S. epidermidis ATCC12228” value with S. epidermidis ATCC12228 was 2 µM. For the same substance, the “G− MIC GM” value in [1] stood at 5.66 µM. Moreover, in data set [2], the “G+ MIC GM” value turned out to be 4 µM. Moreover, the IC50 amounted to 6.83 µM with A549 cells; 5.52 µM in the data set with HeLa cells; 2.33 µM in the data set with SGC7901 cells; 6.79 µM in the data set with 3T3-L1 cells; 3.62 µM in the data set on B16 cells. Further, the “tR (RP-HPLC retention time)” value in data set [3] turned out to be 47.337 min. Besides, the “α-Helix (%) 50% TFE” value in data set [4] is reported as 79.68%. In addition, the “[θ]222 Benign” value in [4] is recorded as −6524.79 degree·cm^2·dmol^−1. In data set [4], the “[θ]222 50% TFE” value was −34527.20 degree·cm^2·dmol^−1. Besides, the “α-Helix (%) Benign” value in [4] worked out at 15.06%. For the same substance, in the data set on PC/Chol (8:1 w/w) LUVs, the “PC/Chol Blue shift” value is given as 4 nm. In addition, the “PC/PG Blue shift” value in the data set with PC/PG (7:3 w/w) LUVs came to 34 nm.
With “Ac-KWKSFAKTFKSAKKTVLHTALKAISS-NH2 [Peptide L6A]”, the “G− MIC E. coli ATCC25922” value with E. coli ATCC25922 came out at 64 µM. Moreover, the “G− MIC P. aeruginosa ATCC27853” value with P. aeruginosa ATCC27853 is 125 µM. Moreover, in the data set on S. aureus ATCC25923, the “G+ MIC S. aureus ATCC25923” value is above 125 µM. The “G+ MIC S. epidermidis ATCC12228” value with S. epidermidis ATCC12228 worked out at 64 µM. For the same substance, in data set [1], the “G− MIC GM” value was found to be 89.44 µM. Further, the 50% inhibitory concentration (IC50) amounted to 92.4 µM in the data set with A549 cells; 94.7 µM in the data set on HeLa cells; 78.9 µM with SGC7901 cells; 87.3 µM with 3T3-L1 cells; 74.7 µM in the data set on B16 cells. For the same substance, in [3], the “tR (RP-HPLC retention time)” value is 36.053 min. Moreover, the “α-Helix (%) 50% TFE” value in [4] turned out to be 70.67%. Besides, in data set [4], the “[θ]222 Benign” value is recorded as −3836.18 degree·cm^2·dmol^−1. Also, in data set [4], the “[θ]222 50% TFE” value was −30626.20 degree·cm^2·dmol^−1. For the same substance, the “α-Helix (%) Benign” value in [4] is 8.85%. Besides, in the data set with PC/Chol (8:1 w/w) LUVs, the “PC/Chol Blue shift” value is 1 nm. In the data set on PC/PG (7:3 w/w) LUVs, the “PC/PG Blue shift” value turned out to be 19 nm. For the same substance, the “PC/SM/PE/PS/Chol Blueshift” value in data set [5] amounted to 23 nm.
With “Ac-KWKSFLKTFKSASKTVLHTALKAISS-NH2 [Peptide V13S]”, the “G− MIC E. coli ATCC25922” value in the data set with E. coli ATCC25922 came out at 8 µM. In addition, the “G− MIC P. aeruginosa ATCC27853” value with P. aeruginosa ATCC27853 came to 8 µM. In addition, in the data set on S. aureus ATCC25923, the “G+ MIC S. aureus ATCC25923” value is 8 µM. The “G+ MIC S. epidermidis ATCC12228” value in the data set with S. epidermidis ATCC12228 is 4 µM. The “G− MIC GM” value in data set [1] worked out at 8 µM. Also, the “G+ MIC GM” value in data set [2] worked out at 5.66 µM. The IC50 came to 12.1 µM in the data set with A549 cells; 12.2 µM in the data set on HeLa cells; 4.27 µM with SGC7901 cells; 17 µM with 3T3-L1 cells; 5.61 µM in the data set on B16 cells. Also, in [3], the “tR (RP-HPLC retention time)” value is recorded as 43.038 min. For the same substance, the “α-Helix (%) 50% TFE” value in data set [4] is listed as 71.30%. Also, in data set [4], the “[θ]222 Benign” value is −4400.44 degree·cm^2·dmol^−1. Moreover, the “[θ]222 50% TFE” value in data set [4] was −30899.20 degree·cm^2·dmol^−1. Moreover, in data set [4], the “α-Helix (%) Benign” value turned out to be 10.15%. In addition, the “PC/Chol Blue shift” value in the data set with PC/Chol (8:1 w/w) LUVs was determined as 3 nm. The “PC/PG Blue shift” value with PC/PG (7:3 w/w) LUVs is on record as 27 nm.
